Results: ChEMBL document CHEMBL1201862, “PubChem BioAssay data set” (2004)
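These data come from cells grown in 96-well plates and exposed to compound for 48 hours at five concentrations. The concentration for 50% growth inhibition is given as GI50.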 Active and inactive are the calls of the source. Rule as the data show it: active = GI50 up to about 1.1 µM and inactive = higher.

Key:
Experiment in all cases: growth of human tumour cells (NCI), 48 h
[1] = system: 786-0
[2] = system: A498
[3] = system: A549
[4] = system: ACHN
[5] = system: CAKI-1
[6] = system: CCRF-CEM
[7] = system: COLO 205
[8] = system: DLD-1
[9] = system: DMS-114
[10] = system: EKVX
[11] = system: HCT-116
[12] = system: HCT-15
[13] = system: HL-60
[14] = system: HOP-18
[15] = system: HOP-62
[16] = system: HOP-92
[17] = system: HT-29
[18] = system: IGROV-1
[19] = system: KM-20L2
[20] = system: KM12
[21] = system: LOX IMVI
[22] = system: LXFL 529
[23] = system: M14
[24] = system: M19-MEL
[25] = system: MOLT-4
[26] = system: Malme-3M
[27] = system: NCI-H226
[28] = system: NCI-H23
[29] = system: NCI-H460
[30] = system: NCI-H522
[31] = system: OVCAR-3
[32] = system: OVCAR-4
[33] = system: OVCAR-5
[34] = system: OVCAR-8
[35] = system: RPMI-8226
[36] = system: RXF 393
[37] = system: RXF 631
[38] = system: SF-268
[39] = system: SF-295
[40] = system: SF-539
[41] = system: SK-MEL-28
[42] = system: SK-MEL-5
[43] = system: SK-OV-3
[44] = system: SN12C
[45] = system: SNB-19
[46] = system: SNB-75
[47] = system: SNB-78
[48] = system: SR
[49] = system: SW-620
[50] = system: TK-10
[51] = system: U-251
[52] = system: UACC-257
[53] = system: UACC-62
[54] = system: UO-31
[55] = system: DMS-273
[56] = system: HCC 2998
[57] = system: K562
[58] = system: SK-MEL-2
[59] = system: BT-549
[60] = system: DU-145
[61] = system: Hs-578T
[62] = system: MCF7
[63] = system: MDA-MB-231
[64] = system: MDA-MB-435
[65] = system: MDA-N
[66] = system: NCI/ADR-RES
[67] = system: PC-3
[68] = system: T47D

Measured: GI50

O=C(COc1ccc(/C=C/C(=O)c2ccc(Cl)cc2)cc1)Nc1c(Cl)cccc1Cl
> 100 µM: [12]
active: [13] 0.0607 µM
inactive: [1] > 100 µM | [2] > 100 µM | [3] > 100 µM | [4] > 100 µM | [5] > 100 µM | [6] 20.8 µM | [7] > 100 µM | [8] > 100 µM | [9] 33.3 µM | [10] > 100 µM | [11] 38.2 µM | [14] > 100 µM | [15] > 100 µM | [16] 19.1 µM | [17] > 100 µM | [18] > 100 µM | [19] > 100 µM | [20] 67.5 µM | [21] 56.1 µM | [22] 78.7 µM | [23] > 100 µM | [24] > 100 µM | [25] 10.7 µM | [26] > 100 µM | [27] > 100 µM | [28] 77.8 µM | [29] > 100 µM | [30] 33.1 µM | [31] > 100 µM | [32] 94 µM | [33] 40.8 µM | [34] 51.4 µM | [35] 30.2 µM | [36] 36 µM | [37] > 100 µM | [38] > 100 µM | [39] 68.7 µM | [40] 80.7 µM | [41] > 100 µM | [42] 48.3 µM | [43] 58.3 µM | [44] > 100 µM | [45] > 100 µM | [46] 56.4 µM | [47] 58.9 µM | [48] 50 µM | [49] > 100 µM | [50] > 100 µM | [51] 68.2 µM | [52] 79.8 µM | [53] > 100 µM | [54] > 100 µM

O=C(CC1(O)C(=O)Nc2ccccc21)c1ccc(O)cc1 (stereo not drawn)
> 100 µM: [12]
inactive: [1] > 100 µM | [2] > 100 µM | [3] > 100 µM | [4] > 100 µM | [5] > 100 µM | [6] > 100 µM | [7] > 100 µM | [8] > 100 µM | [9] > 100 µM | [55] > 100 µM | [10] > 100 µM | [56] > 100 µM | [11] > 100 µM | [13] > 100 µM | [14] > 100 µM | [15] > 100 µM | [16] > 100 µM | [17] > 100 µM | [18] > 100 µM | [57] > 100 µM | [19] > 100 µM | [20] > 100 µM | [21] > 100 µM | [22] > 100 µM | [23] > 100 µM | [24] 70.1 µM | [25] > 100 µM | [26] > 100 µM | [27] > 100 µM | [28] > 100 µM | [29] > 100 µM | [31] > 100 µM | [32] > 100 µM | [33] > 100 µM | [35] > 100 µM | [36] > 100 µM | [37] > 100 µM | [38] > 100 µM | [39] > 100 µM | [40] > 100 µM | [41] > 100 µM | [58] > 100 µM | [42] > 100 µM | [43] > 100 µM | [44] > 100 µM | [45] > 100 µM | [46] 69 µM | [47] > 100 µM | [48] > 100 µM | [49] > 100 µM | [50] > 100 µM | [51] > 100 µM | [52] > 100 µM | [53] > 100 µM | [54] > 100 µM

O=C1c2ccccc2C(=O)c2c1ccc1c3ccccc3n(-c3ccccc3)c21
16.1 µM: [12]
inactive: [1] 21.3 µM | [2] 46 µM | [3] 27.7 µM | [4] 17.3 µM | [59] 25.7 µM | [5] 18.2 µM | [6] 2.85 µM | [7] 16.9 µM | [8] 17.1 µM | [55] 18.6 µM | [60] 18.7 µM | [10] 41.3 µM | [56] 46.6 µM | [11] 19.7 µM | [13] 2.03 µM | [14] 14.5 µM | [15] 49.5 µM | [16] 4.84 µM | [17] 16.7 µM | [61] 15 µM | [18] 25.4 µM | [57] 6.61 µM | [19] 21.5 µM | [20] 29.2 µM | [21] 14.5 µM | [22] 16.8 µM | [23] 12.4 µM | [24] 18.8 µM | [62] 16 µM | [63] 22.4 µM | [64] 9.31 µM | [65] 25 µM | [25] 2.3 µM | [26] 28.7 µM | [27] 26.1 µM | [28] 15.4 µM | [29] 27.2 µM | [30] 15.4 µM | [66] 39.7 µM | [31] 19.5 µM | [32] 18.8 µM | [33] 27 µM | [34] 27.2 µM | [67] 28.1 µM | [35] 7.24 µM | [36] 14.1 µM | [37] 7.94 µM | [38] 23 µM | [39] 18.2 µM | [40] 19.1 µM | [41] 17.9 µM | [58] 25.7 µM | [42] 16.1 µM | [43] > 100 µM | [44] 17.8 µM | [45] 75.5 µM | [46] 18.3 µM | [47] 21.1 µM | [48] 5.89 µM | [49] 15.8 µM | [68] 14.6 µM | [50] 40.8 µM | [51] 32.7 µM | [52] 20.7 µM | [53] 14.7 µM | [54] 21.3 µM

CC(C)(C)OC(=O)C#CC[C@H]1CCCC1/C=C/C(O)=C1/C(=O)NC(CCCNC(=O)OC(C)(C)C)C1=O (stereo partly drawn)
inactive: [1] 40.6 µM | [2] 45.2 µM | [3] > 100 µM | [4] 40.7 µM | [5] 38.8 µM | [6] 27.2 µM | [7] 17.8 µM | [8] 53 µM | [9] 21.3 µM | [55] 26.1 µM | [10] 16.3 µM | [56] 42.9 µM | [11] 11.4 µM | [13] 33.3 µM | [14] 25.7 µM | [15] 45.4 µM | [16] 23.7 µM | [17] 40.1 µM | [18] 39.5 µM | [57] 36 µM | [19] 25.1 µM | [20] 41.6 µM | [21] 19.8 µM | [22] 21.8 µM | [23] 45.7 µM | [24] 25.9 µM | [25] 32.1 µM | [26] 21.3 µM | [27] 88.1 µM | [28] 24.9 µM | [29] 20.3 µM | [30] 16.5 µM | [31] 31.8 µM | [32] 33.5 µM | [33] 88.5 µM | [34] 15.2 µM | [35] 33.2 µM | [36] 14.7 µM | [37] 19.4 µM | [38] 23.9 µM | [39] 41.4 µM | [40] 26.4 µM | [41] 17.1 µM | [58] 16.6 µM | [42] 47.8 µM | [43] 88.5 µM | [44] 40.1 µM | [45] 30.6 µM | [46] 32.6 µM | [48] 26.2 µM | [49] 38.5 µM | [50] 31.9 µM | [51] 25.9 µM | [52] 24.2 µM | [53] 18.3 µM | [54] 33.7 µM
